Assay results published in the supplement of paper PMC10307832.

Key:
Assay in all cases: relative viability (nuclei count vs DMSO), 5 days (fraction); higher = more cells survive
[1] = compound: C1=CC2=C(C=C(C(=C2N=C1)O)N=NC3=CC4=C(C=C3)C=C(C=C4)S(=O)(=O)O)S(=O)(=O)O + Cc1nc(Nc2ncc(C(=O)Nc3c(C)cccc3Cl)s2)cc(N2CCN(CCO)CC2)n1 [Dasatinib] (partner 0.075 µM)
Method in brief: (§1)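 One day after seeding in 1536-well plates, lung cancer cell lines were dosed by pin tool. Dosing was either single-drug or a fixed anchor-drug dose plus five library-drug doses (not always all listed) in √10 steps. After 5 days, nuclei were stained in one fix-and-stain step and counted on 4× images, and relative viability is the nuclei count of treated wells over that of vehicle wells, given as the median of duplicate plates.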

AT-7519 + Trametinib = compound: O=C(NC1CCNCC1)c1n[nH]cc1NC(=O)c1c(Cl)cccc1Cl [AT-7519] + CC(=O)Nc1cccc(-n2c(=O)n(C3CC3)c(=O)c3c(Nc4ccc(I)cc4F)n(C)c(=O)c(C)c32)c1 [Trametinib] (partner 0.02 µM)
Method in brief: as §1

AT-7519 + Foretinib = compound: O=C(NC1CCNCC1)c1n[nH]cc1NC(=O)c1c(Cl)cccc1Cl [AT-7519] + COc1cc2c(Oc3ccc(NC(=O)C4(C(=O)Nc5ccc(F)cc5)CC4)cc3F)ccnc2cc1OCCCN1CCOCC1 [Foretinib] (partner 0.25 µM)
Method in brief: as §1

AT-7519 + Pictilisib = compound: O=C(NC1CCNCC1)c1n[nH]cc1NC(=O)c1c(Cl)cccc1Cl [AT-7519] + CS(=O)(=O)N1CCN(Cc2cc3nc(-c4cccc5[nH]ncc45)nc(N4CCOCC4)c3s2)CC1 [Pictilisib] (partner 1 µM)
Method in brief: as §1

| Cell Line | relative viability ([1]; first compound 0.08 µM) | relative viability ([1]; first compound 0.253 µM) | relative viability ([1]; first compound 0.8 µM) | relative viability ([1]; first compound 2.53 µM) | relative viability ([1]; first compound 8 µM) | relative viability (AT-7519 + Trametinib; first compound 0.01 µM) | relative viability (AT-7519 + Trametinib; first compound 0.03162 µM) | relative viability (AT-7519 + Trametinib; first compound 0.3162 µM) | relative viability (AT-7519 + Trametinib; first compound 1 µM) | relative viability (AT-7519 + Foretinib; first compound 0.01 µM) | relative viability (AT-7519 + Foretinib; first compound 0.03162 µM) | relative viability (AT-7519 + Foretinib; first compound 0.3162 µM) | relative viability (AT-7519 + Foretinib; first compound 1 µM) | relative viability (AT-7519 + Pictilisib; first compound 0.01 µM) | relative viability (AT-7519 + Pictilisib; first compound 0.03162 µM) | relative viability (AT-7519 + Pictilisib; first compound 0.3162 µM) | relative viability (AT-7519 + Pictilisib; first compound 1 µM) |
| --- | --- | --- | --- | --- | --- | --- | --- | --- | --- | --- | --- | --- | --- | --- | --- | --- | --- |
| NCI-H522 | 0.91 | 0.92 | 0.746 | 0.788 | 1.03 | 0.717 | 0.835 | 0.757 | 0.717 | – | – | – | – | – | – | – | – |
| NCI-H838 | 0.292 | 0.25 | 0.283 | 0.3 | 0.29 | 0.475 | 0.443 | 0.529 | 0.0788 | 1.07 | 1.02 | 0.886 | 0.527 | 0.567 | 0.427 | 0.145 | 0.103 |
| SW 900 | 0.596 | 0.668 | 0.619 | 0.52 | 0.743 | 0.986 | 0.744 | 0.659 | 0.401 | 0.792 | 0.68 | 0.858 | 0.442 | – | – | – | – |
| A549 | – | – | – | – | – | – | – | – | – | 0.925 | 0.984 | 0.852 | 0.845 | 0.463 | 0.466 | 0.421 | 0.0948 |
| A-427 | 0.68 | 0.634 | 0.64 | 0.775 | 0.751 | 0.728 | 0.71 | 0.716 | 0.338 | 1.16 | 0.968 | 1.06 | 0.384 | 0.711 | 0.713 | 0.574 | 0.253 |
| NCI-H1792 | 0.772 | 0.669 | 0.458 | 0.84 | 0.835 | 0.399 | 0.4 | 0.506 | 0.225 | – | – | – | – | 0.196 | 0.218 | 0.234 | 0.252 |
| LCLC-97TM1 | 0.705 | 0.842 | 0.691 | 0.779 | 0.865 | 0.175 | 0.173 | 0.224 | 0.117 | 0.859 | 0.946 | 0.817 | 0.437 | 0.196 | 0.176 | 0.211 | 0.152 |
| NCI-H1703 | – | – | – | – | – | – | – | – | – | 0.335 | 0.317 | 0.353 | 0.331 | 0.322 | 0.234 | 0.241 | 0.129 |
| LCLC-103H | 0.537 | 0.461 | 0.505 | 0.458 | 0.48 | 0.686 | 0.682 | 0.72 | 0.587 | 0.773 | 0.704 | 0.879 | 0.677 | 0.624 | 0.517 | 0.488 | 0.557 |
| PC-3 [JPC-3] | 1.11 | 0.98 | 1.03 | 1.05 | 1 | 0.715 | 0.667 | 0.767 | 0.53 | 1.03 | 1.05 | 1.03 | 1.06 | 0.779 | 0.751 | 0.688 | 0.694 |
| BEN | 0.25 | 0.31 | 0.296 | 0.347 | 0.322 | 0.99 | 1.04 | 0.885 | 1.11 | 0.719 | 0.636 | 0.922 | 0.8 | 0.532 | 0.512 | 0.697 | 0.468 |
| NCI-H1666 | 0.866 | 0.755 | 0.793 | 0.816 | 0.741 | 0.871 | 0.842 | 0.811 | 0.593 | 0.839 | 0.77 | 0.927 | 0.647 | 0.405 | 0.425 | 0.39 | 0.145 |
| LC-2-ad | 0.799 | 0.593 | 0.555 | 0.548 | 0.687 | 0.892 | 0.936 | 0.933 | 0.506 | 0.975 | 0.984 | 0.85 | 0.452 | 0.653 | 0.366 | 0.386 | 0.158 |
| SK-LU-1 | 0.2 | 0.177 | 0.212 | 0.167 | 0.172 | 0.498 | 0.46 | 0.416 | 0.309 | 0.803 | 0.794 | 0.88 | 0.433 | 0.591 | 0.54 | 0.5 | 0.357 |
| ChaGo-K-1 | 0.648 | 0.595 | 0.599 | 0.481 | 0.335 | 0.949 | 0.884 | 0.936 | 0.795 | 0.931 | 0.845 | 0.967 | 0.733 | 0.589 | 1.16 | 0.536 | 0.547 |
| COR-L 105 | 0.307 | 0.337 | 0.445 | 0.348 | 0.278 | 0.438 | 0.382 | 0.427 | 0.296 | 1.17 | 1.01 | 1.2 | 0.525 | 0.372 | 0.423 | 0.254 | 0.246 |
| NCI-H1975 | 0.388 | 0.356 | 0.343 | 0.4 | 0.388 | 0.339 | 0.311 | 0.342 | 0.165 | 0.982 | 0.953 | 0.863 | 0.189 | 0.293 | 0.253 | 0.231 | 0.146 |
| Calu-6 | – | – | – | – | – | – | – | – | – | 0.903 | 0.917 | 0.865 | 0.641 | 0.863 | 0.919 | 0.689 | 0.131 |
| NCI-H1648 | – | – | – | – | – | 0.39 | – | 0.366 | 0.335 | – | – | – | – | – | – | – | – |
| EBC-1 | – | – | – | – | – | – | – | – | – | 0.101 | 0.106 | 0.0999 | 0.0905 | 0.393 | 0.31 | 0.288 | 0.139 |
| NCI-H1299 | – | – | – | – | – | – | – | – | – | 1.13 | 1.06 | 1.1 | 1.15 | 0.865 | 0.738 | 0.507 | 0.127 |
| NCI-H2342 | 0.297 | 0.307 | 0.286 | 0.308 | 0.348 | 0.779 | 0.784 | 0.809 | 0.817 | 1.02 | 0.972 | 0.977 | 0.965 | – | – | – | – |
| IA-LM | – | – | – | – | – | – | – | – | – | 1.25 | 1.53 | 1.08 | 0.918 | 0.31 | 0.328 | 0.191 | 0.0278 |
